Experimental data published in patent US8435762B2, “Chimeric ligand-gated ion channels and methods of use thereof” (Howard Hughes Medical Institute, priority 2008, dated 2013).
Entries after “also recorded” stand apart in the source; their conditions may differ. Where two headings read alike, the source gives them in different places.

Tests used:
[1] = target: T1, α7-5HT3 wt chimeric receptor (Homo sapiens, UniProt P36544, M226I/T225I); assay: fluorescence membrane potential (MP) assay, HEK 293 cells; assay type: cell-based, human/mouse; conditions: dose response curves, MP assay
T1 construct: expressed in transfected cells; host or cells: HEK 293 cells
T1 sequence (P36544 with tags, fused parts or gaps T225I/M226I): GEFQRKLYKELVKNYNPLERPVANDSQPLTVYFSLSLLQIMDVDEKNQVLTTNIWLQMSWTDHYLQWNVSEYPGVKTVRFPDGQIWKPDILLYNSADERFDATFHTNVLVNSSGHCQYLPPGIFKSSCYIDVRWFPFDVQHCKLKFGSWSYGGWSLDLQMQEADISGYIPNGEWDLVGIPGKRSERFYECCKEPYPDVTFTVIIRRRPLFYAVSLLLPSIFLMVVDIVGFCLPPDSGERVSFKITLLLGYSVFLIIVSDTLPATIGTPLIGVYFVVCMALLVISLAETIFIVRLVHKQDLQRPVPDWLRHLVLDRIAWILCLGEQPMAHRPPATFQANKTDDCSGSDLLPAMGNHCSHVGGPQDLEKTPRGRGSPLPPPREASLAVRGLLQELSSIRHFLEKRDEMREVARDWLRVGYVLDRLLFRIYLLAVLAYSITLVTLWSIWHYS

[2] = target: T2, α7-5HT3 Q79G (Homo sapiens, UniProt P36544, M226I/Q79G/T225I); assay: whole cell voltage clamp recordings (Iss, Ipeak); assay type: cell-based, human/mouse
T2 construct: expressed in transfected cells; host or cells: HEK 293 cells (ATCC CRL-1573)
T2 sequence (P36544 with tags, fused parts or gaps Q79G/T225I/M226I): as the sequence (P36544 with tags, fused parts or gaps T225I/M226I) above, with Q57G counted along it

[3] = target: T3, α7-5HT3 Q79G L141S (Homo sapiens, UniProt P36544, L141S/M226I/Q79G/T225I); assay: whole cell voltage clamp recordings (Iss, Ipeak); assay type: cell-based, human/mouse; conditions: for EC50: α7 Q79G L141S, IPD 5HT3
T3 construct: expressed in transfected cells
T3 sequence (P36544 with tags, fused parts or gaps Q79G/L141S/T225I/M226I): as the sequence (P36544 with tags, fused parts or gaps T225I/M226I) above, with Q57G, L119S counted along it

[4] = target: T3, α7-5HT3 Q79G L141S; assay: fluorescence membrane potential (MP) assay, HEK 293 cells; assay type: cell-based, human/mouse; conditions: IPD 5HT3, value (s.e.m.)
[5] = target: T2, α7-5HT3 Q79G; assay: as above; assay type: cell-based, human/mouse
[6] = target: T4, α7-5HT3 Q79G Q139G (Homo sapiens, UniProt P36544, M226I/Q139G/Q79G/T225I); assay: whole cell voltage clamp recordings (Iss, Ipeak); assay type: cell-based, human/mouse
T4 construct: expressed in transfected cells
T4 sequence (P36544 with tags, fused parts or gaps Q79G/Q139G/T225I/M226I): as the sequence (P36544 with tags, fused parts or gaps T225I/M226I) above, with Q57G, Q117G counted along it

[7] = target: T4, α7-5HT3 Q79G Q139G; assay: fluorescence membrane potential (MP) assay, HEK 293 cells; assay type: cell-based, human/mouse; conditions: IPD 5HT3
[8] = target: T5, α7-GlyR Q79G (Homo sapiens, UniProt P36544, Q79G); assay: whole cell voltage clamp recordings (Iss, Ipeak); assay type: cell-based; conditions: IPD GlyR
T5 construct: expressed in transfected cells; host or cells: HEK 293 cells
T5 sequence (P36544 with tags, fused parts or gaps Q79G): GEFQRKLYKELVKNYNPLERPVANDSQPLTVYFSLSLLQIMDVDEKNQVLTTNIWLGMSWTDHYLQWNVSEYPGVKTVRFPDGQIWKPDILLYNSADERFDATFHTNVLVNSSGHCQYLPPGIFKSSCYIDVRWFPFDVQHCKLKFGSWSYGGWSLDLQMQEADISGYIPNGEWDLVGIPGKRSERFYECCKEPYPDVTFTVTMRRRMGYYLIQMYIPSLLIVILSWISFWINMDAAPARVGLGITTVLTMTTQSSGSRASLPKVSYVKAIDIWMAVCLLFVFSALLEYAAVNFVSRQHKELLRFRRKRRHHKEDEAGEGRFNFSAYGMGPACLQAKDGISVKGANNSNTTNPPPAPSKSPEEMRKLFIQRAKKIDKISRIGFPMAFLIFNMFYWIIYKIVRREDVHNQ

[9] = target: T6, α7-5HT3 Q79G Q139M (Homo sapiens, UniProt P36544, M226I/Q139M/Q79G/T225I); assay: fluorescence membrane potential (MP) assay, HEK 293 cells; assay type: cell-based, human/mouse
T6 construct: expressed in transfected cells
T6 sequence (P36544 with tags, fused parts or gaps Q79G/Q139M/T225I/M226I): as the sequence (P36544 with tags, fused parts or gaps T225I/M226I) above, with Q57G, Q117M counted along it

[10] = target: T7, α7-5HT3 L141F (Homo sapiens, UniProt P36544, L141F/M226I/T225I); assay: as above; assay type: cell-based, human/mouse
T7 construct: expressed in transfected cells; host or cells: HEK 293 cells (ATCC CRL-1573)
T7 sequence (P36544 with tags, fused parts or gaps L141F/T225I/M226I): as the sequence (P36544 with tags, fused parts or gaps T225I/M226I) above, with L119F counted along it

[11] = target: T8, α7-5HT3 HC L141F (R425Q R429D R433A) (Homo sapiens, UniProt P36544, L141F/M226I/T225I); assay: whole cell voltage clamp recordings (Iss, Ipeak); assay type: cell-based, human/mouse
T8 construct: expressed in transfected cells; host or cells: HEK 293 cells (A14); mouse layer 2/3 cortical neurons (A19)
T8 sequence (P36544 with tags, fused parts or gaps L141F/T225I/M226I): as the sequence (P36544 with tags, fused parts or gaps T225I/M226I) above, with L119F, R403Q, R407D, R411A counted along it

[12] = target: T9, α7-5HT3 HC L141F expressed in layer ⅔ cortical neurons (Homo sapiens, UniProt P36544, L141F/M226I/T225I); assay: cell attached recording of firing in layer ⅔ cortical neurons; assay type: cell-based, mouse; conditions: 3 μM
T9 construct: expressed in transfected cells; host or cells: HEK 293 cells (A14); mouse layer 2/3 cortical neurons (A19)
T9 sequence (P36544 with tags, fused parts or gaps L141F/T225I/M226I): as the sequence (P36544 with tags, fused parts or gaps T225I/M226I) above, with L119F, R403Q, R407D, R411A counted along it
Excerpt: FIG. 7. High conductance chimeric cationic ligand-gated ion channel activates layer ⅔ cortical neurons. A. Current trace from voltage clamp recordings in HEK 293 cells transfected with high conductance (HC) α7-5HT3 L141F receptors showing sustained response of the receptor to compound 89S. B. Cell attached extracellular recording of action currents from mouse layer ⅔ cortical neurons transfected with HC α7-5HT3 L141F. In addition to the mutation in the ligand binding domain (e.g., L141F), these receptors contain high conductance inducing mutations in the α7-5HT3 sequence: R425Q R429D R433A in SEQ ID NO: 1.
To develop a neuron activating cation channel, we further modified the α7-5HT3 channel with three previously described mutations that were reported to provide a 100-fold increase in conductance: R425Q R429D R433A.

[13] = target: T10, α7-GlyR L141F Y115F expressed in layer ⅔ cortical neurons (Homo sapiens, UniProt P36544, L141F/Y115F); assay: rheobase of layer ⅔ cortical neurons; assay type: cell-based
T10 construct: expressed in transfected cells; layer 2/3 cortical neurons (A20)
T10 sequence (P36544 with tags, fused parts or gaps Y115F/L141F): as the sequence (P36544 with tags, fused parts or gaps Q79G) above, with G57Q, Y93F, L119F counted along it
Excerpt: (§1) FIG. 8. Chimeric α7-GlyR ligand-gated ion channel conducts chloride and greatly reduces excitability of cortical neurons in the presence of the cognate ligand. A. Current trace from voltage clamp recordings in transfected HEK 293 cells showing sustained responses of α7-GlyR and α7-GABA C mutant chimeric receptors to activation by synthetic ligands of the invention. Black line indicates time course of ligand application. […] C. Rheobase, which is the amount of current required to elicit an action potential, is not affected by expression of α7-GlyR L141F Y115F (labeled as condition: PRE). However, rheobase increases 10-fold in the presence of 10 μM compound 89S. There is no change in rheobase in untransfected neurons, even in the presence of 30 μM compound 89S. This reduction of excitability in α7-GlyR L141F Y115F expressing neurons is reversed after washout of the synthetic ligand (labeled as condition: WASH).
(§2) This was measured by the amount of current required to evoke and action potential, also termed rheobase (FIG. 8C). We found no difference in the rheobase of α7-GlyR L141F Y115F expressing neurons and untransfected cells.

[14] = tested on: non-transduced neurons; assay: excitability of non-transduced cortical neurons; assay type: cell-based; conditions: even at 30 μM
Description: (§3) FIG. 9. Synthetic ligand-induced silencing of a cortical neuron transduced by viral gene delivery α7-GlyR L141F mutant chimeric ligand-gated ion channels. Cortical neurons were transduced with adeno-associated virus (AAV) encoding the α7-GlyR L141F mutant chimeric ligand-gated ion channel under the control of the neuron-specific synapsin promoter. A. Excitability of a transfected cortical neuron before, during, and after administration of compound 89S (10 μM). […] The neuron fires normally with <100 pA injected current before and after the compound administration. B. Excitability of a non-transduced neuron is shown for comparison. Non-transduced neurons are not affected by administration of compound 89S, even at a higher concentration (30 μM).
(§4) The synapsin promoter, which restricts gene expression to neuronal cell types, was used to drive expression of α7-GlyR L141F in an adeno-associated virus (AAV) gene delivery vector.

[15] = target: T11, α7-GlyR L141F (Homo sapiens, UniProt P36544, L141F); assay: whole cell voltage clamp recordings (Iss, Ipeak); assay type: cell-based; conditions: IPD GlyR
T11 construct: expressed in transfected cells; host or cells: HEK 293 cells (A15); cortical neurons transduced with AAV, synapsin promoter (A22)
T11 sequence (P36544 with tags, fused parts or gaps L141F): as the sequence (P36544 with tags, fused parts or gaps Q79G) above, with G57Q, L119F counted along it

[16] = target: T12, α7-GlyR L141F Y115F (Homo sapiens, UniProt P36544, L141F/Y115F); assay: whole cell voltage clamp recordings (Iss, Ipeak); assay type: cell-based; conditions: IPD GlyR
T12 construct: expressed in transfected cells; layer 2/3 cortical neurons (A20)
T12 sequence (P36544 with tags, fused parts or gaps Y115F/L141F): as the sequence (P36544 with tags, fused parts or gaps Q79G) above, with G57Q, Y93F, L119F counted along it

[17] = target: T7, α7-5HT3 L141F; assay: whole cell voltage clamp recordings (Iss, Ipeak); assay type: cell-based, human/mouse
[18] = target: T13, α7-GABA C L141F (Homo sapiens, UniProt P36544, L141F); assay: whole cell voltage clamp recordings (Iss, Ipeak); assay type: cell-based; conditions: IPD GABAC
T13 construct: expressed in transfected cells; host or cells: HEK 293 cells
T13 sequence (P36544 with tags, fused parts or gaps L141F): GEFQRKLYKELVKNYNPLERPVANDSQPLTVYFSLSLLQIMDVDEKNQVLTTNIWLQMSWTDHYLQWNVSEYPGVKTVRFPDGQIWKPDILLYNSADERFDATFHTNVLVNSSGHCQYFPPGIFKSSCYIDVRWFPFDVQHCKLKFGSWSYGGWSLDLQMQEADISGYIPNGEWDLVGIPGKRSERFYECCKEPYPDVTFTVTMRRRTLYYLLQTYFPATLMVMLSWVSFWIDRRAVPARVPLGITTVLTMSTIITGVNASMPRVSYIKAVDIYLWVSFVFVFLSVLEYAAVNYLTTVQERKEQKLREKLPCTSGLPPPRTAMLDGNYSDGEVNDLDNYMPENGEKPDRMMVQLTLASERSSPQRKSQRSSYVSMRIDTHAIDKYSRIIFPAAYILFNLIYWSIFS

[19] = target: T14, α7-GlyR L141F in cortical neurons (AAV, synapsin promoter) (Homo sapiens, UniProt P36544, L141F); assay: excitability of AAV-transduced cortical neurons; assay type: cell-based; conditions: 10 μM; current injection up to 500 pA
T14 construct: expressed in transfected cells; host or cells: HEK 293 cells (A15); cortical neurons transduced with AAV, synapsin promoter (A22)
T14 sequence (P36544 with tags, fused parts or gaps L141F): as the sequence (P36544 with tags, fused parts or gaps Q79G) above, with G57Q, L119F counted along it
Description: as §3, §4

[20] = tested on: untransfected neurons; assay: rheobase of untransfected cortical neurons; assay type: cell-based; conditions: even at 30 μM
Excerpt: as §1, §2

[21] = peak current, IPD 5HT3, read-out: EC50-Ipeak
[22] = steady state current, IPD 5HT3, read-out: EC50-Iss
[23] = peak current, read-out: EC50-Ipeak
[24] = steady state current, read-out: EC50-Iss

CCCCc1ccc(C(=O)N[C@@H]2CN3CCC2CC3)cc1 [Compound 9S, (S)-4-butyl-N-(quinuclidin-3-yl)benzamide]
activity against α7-5HT3 wt (unmodified) receptor [1]: did not induce activate | EC50 [2, 21]: 4.3 µM | EC50 [2, 22]: 2.3 µM | EC50 [3, 23]: 12.3 µM | shift in the efficacy for α7-5HT3 Q79G L141S ([3]; relative to α7-5HT3 Q79G): only slight shift | EC50 [3, 24]: 4 µM | EC50 [4]: 4.1 µM

O=C(N[C@@H]1CN2CCC1CC2)c1ccc(C(F)(F)F)cc1 [Compound 22S, (S)—N-(quinuclidin-3-yl)-4-(trifluoromethyl)benzamide]
selectivity for Q79G relative to other mutant receptors ([5]; FIG. 5 dose response curves): selective | EC50 ([5]; read-out: EC50-MP, α7 Q79G, IPD 5HT3, value (s.e.m.)): 0.8 µM | activity against α7-5HT3 wt (unmodified) receptor [1]: did not induce activate | EC50 [6, 21]: 11.6 ± 3.6 µM | EC50 [6, 22]: 2.7 ± 1 µM | EC50 [2, 21]: 2.7 µM | EC50 [2, 22]: 0.4 µM | EC50 [7]: 3.9 µM | EC50 [8, 23]: 7.5 µM | EC50 [8, 24]: 4.8 µM | fold improvement in potency (EC50), α7-5HT3 Q79G Q139M relative to α7-5HT3 Q79G ([9]; EC50MP): 20 fold | EC50 ([9]; α7 Q79G Q139M, IPD 5HT3, value (s.e.m.), read-out: EC50-MP): 0.06 ± 0.04 µM

COc1ccc(OC)c(C(=O)N[C@@H]2CN3CCC2CC3)c1 [Compound 89S, (S)-2,5-dimethoxy-N-(quinuclidin-3-yl)benzamide]
selectivity for L141F relative to other mutant receptors ([10]; FIG. 5 dose response curves): selective | EC50 ([10]; read-out: EC50-MP, α7 L141F, IPD 5HT3, value (s.e.m.)): 0.4 ± 0.1 µM | EC50 ([11]; read-out: EC50-Ipeak, peak current, IPD 5HT3 HC): 2.3 µM | EC50 ([11]; read-out: EC50-Iss, steady state current, IPD 5HT3 HC): 1.5 µM | firing rate of neurons [12]: sustainably increased | activity against α7-5HT3 wt (unmodified) receptor [1]: no activity | increase of rheobase ([13]; 10 μM): 10 fold | reversibility of the effect on neuronal excitability after washout ([13]; washed away with drug-free buffer): rapidly reversible; also recorded: reversed | excitability of non-transduced neurons [14]: unaffected; also recorded: not affected | EC50 ([15]; EC50-Iss, steady state current): 1.8 µM | EC50-Ipeak ([15]; peak current, *complex: multiphasic dose response): *complex | EC50 ([16]; EC50-Ipeak, peak current): 6.9 µM | EC50 ([16]; EC50-Iss, steady state current): 5.2 µM | EC50 ([17]; read-out: EC50-Ipeak, peak current, IPD 5HT3): 3.2 µM | EC50 ([17]; read-out: EC50-Iss, steady state current, IPD 5HT3): 0.7 µM | EC50 ([18]; EC50-Ipeak, peak current): 8.8 µM | EC50 ([18]; EC50-Iss, steady state current): 4.9 µM | excitability (silencing) of transduced neurons [19]: rendered sensitive to silencing; also recorded: poorly excitable | change in rheobase in untransfected neurons [20]: no change
